Reference: ChEMBL document CHEMBL4196074, “Metallomics for Alzheimer's disease treatment: Use of new generation of chelators combining metal-cation binding and transport properties” (Eur J Med Chem, 2018)
Activity calls are given as the source filed them. Unless noted, no cut-off for these calls is given here.

Key:
SH-SY5Y [1] = test: Antiproliferative activity against human SH-SY5Y cells at 1 uM after 24 to 72 hrs by WST1 assay; type: cell-based
SH-SY5Y [2] = test: Inhibition of Fe3+-mediated amyloid beta (1 to 42 residues) production in human SH-SY5Y cells expressing APPswe mutant at 1 uM after 72 hrs by ELISA based spectrophotometric analysis; type: cell-based
[3] = Metal chelating activity assessed as compound-Cu2+ complex formation by UV-vis spectrophotometric analysis
[4] = molecular target: Acetylcholinesterase (Homo sapiens) (UniProt P22303); test: Inhibition of acetylcholinesterase (unknown origin) at 1 uM using acetylthiocholine chloride as substrate measured for 5 to 40 mins
Acetylcholinesterase (Homo sapiens), sequence (P22303 whole entry): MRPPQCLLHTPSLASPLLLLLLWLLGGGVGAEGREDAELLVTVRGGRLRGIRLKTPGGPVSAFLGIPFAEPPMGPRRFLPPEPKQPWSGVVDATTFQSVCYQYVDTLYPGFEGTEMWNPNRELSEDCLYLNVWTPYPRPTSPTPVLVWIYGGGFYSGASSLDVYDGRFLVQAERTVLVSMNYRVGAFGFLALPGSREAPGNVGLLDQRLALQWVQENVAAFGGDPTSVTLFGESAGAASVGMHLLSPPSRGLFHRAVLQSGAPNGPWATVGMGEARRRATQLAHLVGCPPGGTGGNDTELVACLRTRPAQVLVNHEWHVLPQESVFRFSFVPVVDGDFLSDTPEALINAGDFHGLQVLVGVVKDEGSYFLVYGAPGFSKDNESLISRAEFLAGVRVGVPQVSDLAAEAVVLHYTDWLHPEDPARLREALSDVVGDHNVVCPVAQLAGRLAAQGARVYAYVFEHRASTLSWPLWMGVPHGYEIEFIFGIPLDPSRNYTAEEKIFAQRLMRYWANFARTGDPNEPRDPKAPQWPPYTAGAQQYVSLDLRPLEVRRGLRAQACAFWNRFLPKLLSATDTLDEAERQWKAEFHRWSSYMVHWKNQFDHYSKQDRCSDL

SH-SY5Y [5] = test: Inhibition of Fe3+-induced toxicity in human SH-SY5Y cells expressing APPswe mutant assessed as increase in cell viability at 1 uM after 72 hrs by WST1 assay; type: cell-based
SH-SY5Y [6] = test: Inhibition of Cu2+-induced toxicity in human SH-SY5Y cells expressing APPswe mutant assessed as increase in cell viability at 1 uM after 72 hrs by WST1 assay; type: cell-based
SH-SY5Y [7] = test: Inhibition of Cu2+-mediated amyloid beta (1 to 42 residues) production in human SH-SY5Y cells expressing APPswe mutant at 1 uM after 72 hrs by ELISA based spectrophotometric analysis; type: cell-based
[8] = Metal chelating activity assessed as compound-Fe3+ complex formation by UV-vis spectrophotometric analysis
SH-SY5Y [9] = test: Neuroprotective activity against amyloid beta (1 to 42 residues) induced cell death in human SH-SY5Y cells expressing APPswe mutant at 1 uM after 48 hrs by WST1 assay; type: functional, cell-based
SH-SY5Y [10] = test: Inhibition of Cu2+-induced caspase-3 activity in human SH-SY5Y cells expressing APPswe mutant at 1 uM after 72 hrs by AcDEVD substrate-based spectrophotometric analysis; type: cell-based
[11] = Metal chelating activity assessed as compound-Zn2+ complex formation by UV-vis spectrophotometric analysis
SH-SY5Y [12] = test: Inhibition of Fe3+-induced caspase-3 activity in human SH-SY5Y cells expressing APPswe mutant at 1 uM after 72 hrs by AcDEVD substrate-based spectrophotometric analysis; type: cell-based
SH-SY5Y [13] = test: Effect on morphological changes in human SH-SY5Y cells expressing APPswe mutant assessed as alteration of cell shape at 1 uM after 72 hrs; type: ADME, cell-based
SH-SY5Y [14] = test: Inhibition of Cu2+-mediated ROS generation in human SH-SY5Y cells expressing APPswe mutant at 1 uM after 72 hrs by DCF-DA dye-based fluorescence spectroscopic analysis; type: cell-based
SH-SY5Y [15] = test: Inhibition of Fe3+-mediated ROS generation in human SH-SY5Y cells expressing APPswe mutant at 1 uM after 72 hrs by DCF-DA dye-based fluorescence spectroscopic analysis; type: cell-based
SH-SY5Y [16] = test: Effect on morphological changes in human SH-SY5Y cells expressing APPswe mutant assessed as decrease in adherent cell number at 1 uM after 72 hrs; type: ADME, cell-based
SH-SY5Y [17] = test: Inhibition of Zn2+-induced caspase-3 activity in human SH-SY5Y cells expressing APPswe mutant at 1 uM after 72 hrs by AcDEVD substrate-based spectrophotometric analysis; type: cell-based
SH-SY5Y [18] = test: Inhibition of Zn2+-mediated ROS generation in human SH-SY5Y cells expressing APPswe mutant at 1 uM after 72 hrs by DCF-DA dye-based fluorescence spectroscopic analysis; type: cell-based
SH-SY5Y [19] = test: Inhibition of Zn2+-induced toxicity in human SH-SY5Y cells expressing APPswe mutant assessed as increase in cell viability at 1 uM after 72 hrs by WST1 assay; type: cell-based
[20] = Effective permeability of the compound at 10^-5 mol/L after 5 hrs by UV-based PAMPA; type: ADME; details: read-out: Peff
SH-SY5Y [21] = test: Inhibition of Zn2+-mediated amyloid beta (1 to 42 residues) production in human SH-SY5Y cells expressing APPswe mutant at 1 uM after 72 hrs by ELISA based spectrophotometric analysis; type: cell-based
[22] = Effective permeability of the compound at pH 7.4 at 200 uM after 4 hrs by PAMPA-BBB assay; type: ADME; details: read-out: Peff

Compound	Activity (SH-SY5Y [1])	inhibition (SH-SY5Y [2])	Activity [3]	inhibition [4]	inhibition (SH-SY5Y [5])	inhibition (SH-SY5Y [6])	inhibition (SH-SY5Y [7])	Activity [8]	Activity (SH-SY5Y [9])	inhibition (SH-SY5Y [10])	Activity [11]	inhibition (SH-SY5Y [12])	inhibition (SH-SY5Y [14])	inhibition (SH-SY5Y [15])	further results
C[C@H](CCC(=O)NN=C(c1ccccn1)c1ccccn1)[C@H]1CC[C@H]2[C@@H]3[C@H](O)C[C@@H]4C[C@H](O)CC[C@]4(C)[C@H]3C[C@H](O)[C@]12C	Non-Toxic	Active	Active	inactive	Active	Active	Active	Active	Active	Active	inactive	Active	–	–	–
COc1ccc(Nc2c(NN=C(c3ccccn3)c3ccccn3)c(=O)c2=O)cc1	Non-Toxic	Active	Active	inactive	–	–	Active	Active	inactive	–	inactive	–	Active	Active	Activity (SH-SY5Y [13]): Toxic; Activity (SH-SY5Y [16]): Toxic
C[C@H](CCC(=O)N/N=C/c1ccc(C(C)(C)C)cc1O)[C@H]1CC[C@H]2[C@@H]3[C@H](O)C[C@@H]4C[C@H](O)CC[C@]4(C)[C@H]3C[C@H](O)[C@]12C	Non-Toxic	inactive	Active	inactive	Active	Active	inactive	Active	Active	Active	inactive	Active	Active	Active	–
Cc1ncc(CO)c(/C=N/NC(=O)CC[C@@H](C)[C@H]2CC[C@H]3[C@@H]4[C@H](O)C[C@@H]5C[C@H](O)CC[C@]5(C)[C@H]4C[C@H](O)[C@]23C)c1O	Non-Toxic	inactive	Active	inactive	Active	Active	inactive	Active	Active	Active	Active	Active	Active	Active	inhibition (SH-SY5Y [17]): Active; inhibition (SH-SY5Y [18]): Active; inhibition (SH-SY5Y [19]): Active; Papp at 5 h, 10 µM [20]: 7.5 ×10⁻⁶ cm/s; inhibition (SH-SY5Y [21]): inactive
CC(C)NCC(O)COc1cccc2ccccc12 (stereo unspecified) [PROPRANOLOL]	–	–	–	–	–	–	–	–	–	–	–	–	–	–	Papp at 4 h, 200 µM [22]: 10.3 ×10⁻⁶ cm/s
CCN1/C(=C/c2c(NN=C(c3ccccn3)c3ccccn3)c(=O)c2=O)Sc2ccccc21	Non-Toxic	Active	Active	inactive	–	–	Active	Active	inactive	–	Active	–	Active	Active	inhibition (SH-SY5Y [18]): Active; Activity (SH-SY5Y [13]): Toxic; inhibition (SH-SY5Y [21]): Active; Activity (SH-SY5Y [16]): Toxic
C[C@H](CCC(=O)N/N=C/c1ccc2ccccc2n1)[C@H]1CC[C@H]2[C@@H]3[C@H](O)C[C@@H]4C[C@H](O)CC[C@]4(C)[C@H]3C[C@H](O)[C@]12C	Non-Toxic	inactive	Active	inactive	Active	Active	inactive	Active	Active	Active	inactive	Active	Active	Active	–
